# Tests used:
# [1] = target: T1, Androgen receptor (Rattus norvegicus) (UniProt P15207)
# T1 sequence (whole entry): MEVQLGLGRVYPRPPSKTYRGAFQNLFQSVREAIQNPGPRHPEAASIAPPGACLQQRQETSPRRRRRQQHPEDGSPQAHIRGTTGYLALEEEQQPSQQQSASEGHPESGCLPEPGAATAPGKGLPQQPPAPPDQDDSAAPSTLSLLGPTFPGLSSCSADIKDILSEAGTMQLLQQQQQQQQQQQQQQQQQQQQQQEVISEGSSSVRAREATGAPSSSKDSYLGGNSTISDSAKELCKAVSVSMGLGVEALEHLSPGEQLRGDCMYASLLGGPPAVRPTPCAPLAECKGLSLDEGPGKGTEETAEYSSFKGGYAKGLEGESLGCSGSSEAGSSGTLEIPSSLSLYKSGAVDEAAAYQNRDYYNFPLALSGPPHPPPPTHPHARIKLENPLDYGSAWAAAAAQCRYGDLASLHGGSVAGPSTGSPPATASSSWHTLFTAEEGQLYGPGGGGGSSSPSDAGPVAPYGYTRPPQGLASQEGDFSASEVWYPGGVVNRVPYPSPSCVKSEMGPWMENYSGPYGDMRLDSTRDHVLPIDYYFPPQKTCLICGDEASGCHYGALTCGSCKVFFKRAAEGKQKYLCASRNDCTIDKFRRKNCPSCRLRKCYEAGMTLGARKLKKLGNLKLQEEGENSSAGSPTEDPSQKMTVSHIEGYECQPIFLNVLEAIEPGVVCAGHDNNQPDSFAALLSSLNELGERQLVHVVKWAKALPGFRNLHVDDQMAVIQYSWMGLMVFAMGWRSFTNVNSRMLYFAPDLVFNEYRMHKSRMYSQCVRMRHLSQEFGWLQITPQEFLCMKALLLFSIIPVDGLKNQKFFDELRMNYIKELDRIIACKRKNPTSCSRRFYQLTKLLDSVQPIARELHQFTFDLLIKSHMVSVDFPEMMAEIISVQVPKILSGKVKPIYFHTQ
# Description: Binding selectivity index (BSI) as ratio of RBA for androgen receptor to non-specific binding of R1881
# [2] = physchem; conditions: octanol/water
# Description: Partition coefficient (logP)
SMILES,BSI [1],logP [2]
C[C@]1(O)CC[C@H]2[C@@H]3CCC4=CC(=O)CCC4=C3C=C[C@@]21C [METRIBOLONE],100,3.29
C[C@]12CC[C@H]3[C@@H](CCC4=CC(=O)CC[C@@]43C)[C@@H]1CC[C@@H]2O [TESTOSTERONE],–,3.45
C[C@]12CC[C@H]3[C@@H](CC[C@H]4CC(=O)CC[C@@H]43)[C@@H]1CC[C@@H]2O,13.7,3.85
C[C@]12CC[C@H]3[C@@H](CCC4=CC(=O)CC[C@@H]43)[C@@H]1CC[C@@H]2O [NANDROLONE],–,3.17
